Source: patent US20070161691A1, “Modified-protein formation inhibitor” (TOKAI UNIVERSITY, priority 2003, published 2007)

What was measured:
[1] = system: middle cerebral artery ischemia-reperfusion model; assay: Cerebroprotective action in middle cerebral artery ischemia-reperfusion model; assay type: in vivo, rat
Description: CD(SD)IGS male rats (Japan Charles River Kabushiki […], Hino farm, room No. 22, specific product) (8 rats per one group) having body weight 270 to 350 g were anesthetized by 2% isoflurane (mixed bas comprising of 70% N2O (laughter gas) and 30% O2) to immobilize, and then the rats were put on warming plate to keep the rectal and brain temperature 37 to 38° C. After that, to observe the stability in the examination, canula which was made by polyethylene (PE-50, Becton Dickinson) was inserted and left in caudal artery of said animal, and this made blood drawing and blood pressure determining to monitor the biochemical parameter such as blood sugar level, hematocrit, CO2 concentration, oxygen partial pressure, pH, blood pressure and etc. In addition, cerebral blood flow in cortex was determined by laser doppler […] (Neuroscience.inc: OMEGA FLOW (FLO-C1)), putting the detection site directly on cranium on the point left 4 mm from bregma. Left neck of such animal was incised, and from internal and external carotid fork of common carotid artery to upstream of internal carotid, nylon surgical thread (length 16 mm, diameter 0.2 to 0.3 mm, with silicon coating on its tip 3 mm) was passed and left, middle cerebral artery was obstructed for 2 hours. After that, the thread was removed to release the middle cerebral artery, and blood was reperfused for 21 hours. To each animals, 3.0 mg/kg of 3-methyl-1-phenyl 2-pyrazolin-5-one (control, hereinafter referring to edaravone) and 4.23 mg/kg of 4-(5-phenyltetrazol-1-ylmethyl)-morpholine (compound 1) (test compound, hereinafter referring to TM-3001) were respectively administered twice by cannula which is left in caudal artery 5 minutes and 5 hours after middle cerebral artery occlusion. After said operation, the brain was removed from said animal, and after preparing 7 brain slices with 2 mm thickness, to TTC stain (0.8 g of 2,3,5-triphenyltetrazolium chloride (Sigma) dissolved in 40 ml of saline) were soaked at 37° C. for 15 minutes to stain, and fixed by 10% neutral formalin liquid to prepare specimen. Such specimens were created the image by CCD camera respectively, and analysed according to method of Swanson et al. (J Cereb Blood Flow Metab 10:290-293; […]). […] Furthermore, function recovering was estimated before and after the operation by rotor rod test that estimates how much they can walk on rotating rotor.

[2] = system: middle cerebral artery ischemia-reperfusion model; assay: as above; assay type: in vivo, rat; conditions: after reperfusion 22 hrs
[3] = comparing to diluent single administration

CC1=NN(c2ccccc2)C(=O)C1 [Edaravone, 3-methyl-1-phenyl 2-pyrazolin-5-one, reference compound]
Nervous condition estimation test, Ave (Bederson grade) ([1]; after occlusion 10 min): 2.8 | Nervous condition estimation test, Ave (Bederson grade) ([1]; after occlusion 2 hrs): 2.7 | Nervous condition estimation test, Ave (Bederson grade) ([1]; after reperfusion 10 min): 2.2 | Nervous condition estimation test, Ave (Bederson grade) ([1]; after reperfusion 3 hrs): 2.1 | Nervous condition estimation test, Ave (Bederson grade) ([1]; after reperfusion 4 hrs): 2.0 | rotor rod test, Ave (count from rotor rod machine) ([1]; before occlusion): 197.0 | improvement for nervous condition [1, 3]: remarkably shown | recovering the function, rotor rod test [1, 3]: remarkably shown | cerebral infarction nest ([1]; comparing to diluent single administration, dosed 5 minutes and 5 hours after occlusion): significantly reduced | rotor rod test, Ave (count from rotor rod machine) ([1]; reperfusion): 153.1 | rotor rod test, ratio to before occlusion (%), Ave ([1]; reperfusion vs before occlusion): 160.4% | Nervous condition estimation test, Ave (Bederson grade) [2]: 1.5
